Measured values as given in PubChem BioAssay (NCI).
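Dose response: 5 concentrations. Exposure: 48 h. Format: 96-well plates. Endpoint: linear interpolation; highest concentration if not reached. Definition used: TGI = concentration required for complete inhibition of growth.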

How the values were obtained:
Assay in all cases: growth of human tumour cells (NCI), 48 h
[1] = tested on: SR leukemia
[2] = tested on: SW-620 colon
[3] = tested on: SNB-78 CNS
[4] = tested on: LXFL 529 NSCLC
[5] = tested on: HCC-2998 colon
[6] = tested on: NCI-H23 lung
[7] = tested on: SNB-19 CNS
[8] = tested on: ACHN renal
[9] = tested on: KM20L2 colon
[10] = tested on: IGROV1 ovarian
[11] = tested on: A549 NSCLC
[12] = tested on: HCT-15 colon
[13] = tested on: SN12C renal
[14] = tested on: UACC-257 melanoma
[15] = tested on: EKVX NSCLC
[16] = tested on: A498 renal
[17] = tested on: CCRF-CEM leukemia
[18] = tested on: OVCAR-8 ovarian
[19] = tested on: SK-MEL-28 melanoma
[20] = tested on: OVCAR-4 ovarian
[21] = tested on: SF-268 CNS
[22] = tested on: DMS 273 small cell lung
[23] = tested on: SF-539 CNS
[24] = tested on: M19-MEL melanoma
[25] = tested on: SK-MEL-2 melanoma
[26] = tested on: RXF 393 renal
[27] = tested on: NCI-H226 lung
[28] = tested on: UO-31 renal
[29] = tested on: HCT-116 colon
[30] = tested on: HT29 colon
[31] = tested on: OVCAR-5 ovarian
[32] = tested on: HOP-62 NSCLC
[33] = tested on: SK-MEL-5 melanoma
[34] = tested on: NCI-H522 lung
[35] = tested on: SNB-75 CNS
[36] = tested on: XF 498 CNS
[37] = tested on: CAKI-1 renal
[38] = tested on: UACC-62 melanoma
[39] = tested on: HL-60(TB) leukemia
[40] = tested on: K-562 leukemia
[41] = tested on: M14 melanoma
[42] = tested on: COLO 205 colon
[43] = tested on: SK-OV-3 ovarian
[44] = tested on: HOP-92 NSCLC
[45] = tested on: NCI-H460 lung
[46] = tested on: RPMI-8226 leukemia
[47] = tested on: LOX IMVI melanoma
[48] = tested on: MOLT-4 leukemia
[49] = tested on: KM12 colon
[50] = tested on: SF-295 CNS
[51] = tested on: U251 CNS
[52] = tested on: DLD-1 colon
[53] = tested on: TK-10 renal
[54] = tested on: 786-0 renal
[55] = tested on: MALME-3M melanoma
[56] = tested on: OVCAR-3 ovarian
[57] = tested on: DMS 114 small cell lung
[58] = tested on: HOP-18 NSCLC

CC(=O)NNc1nc(C)c(C(=O)NNC(=O)C(=O)Nc2c(C)cccc2C(C)(C)C)s1
TGI [1]: > 100 µM | TGI [2]: > 100 µM | TGI [3]: > 100 µM | TGI [4]: > 100 µM | TGI [5]: > 100 µM | TGI [6]: > 100 µM | TGI [7]: > 100 µM | TGI [8]: > 100 µM | TGI [9]: > 100 µM | TGI [10]: > 100 µM | TGI [11]: > 100 µM | TGI [12]: > 100 µM | TGI [13]: > 100 µM | TGI [14]: > 100 µM | TGI [15]: > 100 µM | TGI [16]: > 100 µM | TGI [17]: 69.9 µM | TGI [18]: > 100 µM | TGI [19]: > 100 µM | TGI [20]: > 100 µM | TGI [21]: > 100 µM | TGI [22]: > 100 µM | TGI [23]: > 100 µM | TGI [24]: > 100 µM | TGI [25]: > 100 µM | TGI [26]: > 100 µM | TGI [27]: > 100 µM | TGI [28]: > 100 µM | TGI [29]: > 100 µM | TGI [30]: > 100 µM | TGI [31]: > 100 µM | TGI [32]: > 100 µM | TGI [33]: > 100 µM | TGI [34]: 57.1 µM | TGI [35]: > 100 µM | TGI [36]: > 100 µM | TGI [37]: > 100 µM | TGI [38]: > 100 µM | TGI [39]: > 100 µM | TGI [40]: > 100 µM | TGI [41]: > 100 µM | TGI [42]: > 100 µM | TGI [43]: > 100 µM | TGI [44]: > 100 µM | TGI [45]: > 100 µM | TGI [46]: > 100 µM | TGI [47]: > 100 µM | TGI [48]: > 100 µM | TGI [49]: > 100 µM | TGI [50]: > 100 µM | TGI [51]: > 100 µM | TGI [52]: > 100 µM | TGI [53]: > 100 µM

O=C(CC1C(=O)Nc2ccccc2S1=O)Nc1ccc(Cl)cc1 (centres undefined)
TGI [1]: > 100 µM | TGI [2]: > 100 µM | TGI [3]: > 100 µM | TGI [4]: > 100 µM | TGI [5]: > 100 µM | TGI [6]: > 100 µM | TGI [7]: > 100 µM | TGI [8]: > 100 µM | TGI [54]: > 100 µM | TGI [9]: > 100 µM | TGI [10]: > 100 µM | TGI [11]: > 100 µM | TGI [12]: > 100 µM | TGI [13]: > 100 µM | TGI [14]: > 100 µM | TGI [18]: > 100 µM | TGI [19]: > 100 µM | TGI [20]: > 100 µM | TGI [21]: > 100 µM | TGI [22]: > 100 µM | TGI [23]: 51.1 µM | TGI [25]: > 100 µM | TGI [27]: > 100 µM | TGI [28]: > 100 µM | TGI [30]: > 100 µM | TGI [31]: > 100 µM | TGI [32]: > 100 µM | TGI [34]: > 100 µM | TGI [35]: > 100 µM | TGI [55]: > 100 µM | TGI [37]: > 100 µM | TGI [38]: > 100 µM | TGI [39]: > 100 µM | TGI [40]: > 100 µM | TGI [41]: > 100 µM | TGI [42]: > 100 µM | TGI [43]: 63.9 µM | TGI [44]: 83.4 µM | TGI [45]: > 100 µM | TGI [46]: > 100 µM | TGI [47]: > 100 µM | TGI [48]: > 100 µM | TGI [49]: > 100 µM | TGI [50]: > 100 µM | TGI [51]: > 100 µM | TGI [52]: > 100 µM | TGI [53]: > 100 µM | TGI [56]: > 100 µM

Nc1ccc([C@H]2C(=O)N[C@H]3CCC[C@H]32)cc1
TGI [2]: > 100 µM | TGI [6]: > 100 µM | TGI [7]: > 100 µM | TGI [10]: > 100 µM | TGI [11]: > 100 µM | TGI [12]: > 100 µM | TGI [13]: > 100 µM | TGI [14]: > 100 µM | TGI [15]: > 100 µM | TGI [17]: > 100 µM | TGI [18]: > 100 µM | TGI [19]: > 100 µM | TGI [21]: > 100 µM | TGI [22]: > 100 µM | TGI [23]: > 100 µM | TGI [24]: > 100 µM | TGI [26]: > 100 µM | TGI [57]: > 100 µM | TGI [27]: > 100 µM | TGI [28]: > 100 µM | TGI [30]: > 100 µM | TGI [33]: > 100 µM | TGI [34]: > 100 µM | TGI [35]: > 100 µM | TGI [36]: > 100 µM | TGI [37]: > 100 µM | TGI [38]: > 100 µM | TGI [39]: > 100 µM | TGI [40]: > 100 µM | TGI [41]: > 100 µM | TGI [42]: > 100 µM | TGI [43]: > 100 µM | TGI [46]: > 100 µM | TGI [47]: > 100 µM | TGI [48]: > 100 µM | TGI [49]: > 100 µM | TGI [50]: > 100 µM | TGI [53]: > 100 µM | TGI [56]: > 100 µM

CC12Oc3ccc4ccccc4c3CC1Cc1c(ccc3ccccc13)O2 (centres undefined)
TGI [2]: > 100 µM | TGI [4]: > 100 µM | TGI [5]: > 100 µM | TGI [6]: > 100 µM | TGI [7]: > 100 µM | TGI [8]: > 100 µM | TGI [54]: > 100 µM | TGI [9]: > 100 µM | TGI [11]: > 100 µM | TGI [14]: > 100 µM | TGI [15]: > 100 µM | TGI [18]: > 100 µM | TGI [19]: > 100 µM | TGI [20]: 90.6 µM | TGI [21]: > 100 µM | TGI [22]: 74.9 µM | TGI [23]: > 100 µM | TGI [24]: > 100 µM | TGI [25]: > 100 µM | TGI [26]: 59.8 µM | TGI [57]: > 100 µM | TGI [27]: > 100 µM | TGI [28]: > 100 µM | TGI [29]: > 100 µM | TGI [30]: > 100 µM | TGI [31]: > 100 µM | TGI [32]: > 100 µM | TGI [34]: > 100 µM | TGI [35]: 41.3 µM | TGI [55]: 17 µM | TGI [37]: > 100 µM | TGI [39]: > 100 µM | TGI [41]: > 100 µM | TGI [42]: > 100 µM | TGI [44]: 11 µM | TGI [45]: > 100 µM | TGI [47]: > 100 µM | TGI [49]: > 100 µM | TGI [50]: > 100 µM | TGI [51]: > 100 µM | TGI [52]: > 100 µM | TGI [53]: > 100 µM | TGI [58]: 98.7 µM

C=C(Cl)Cc1c(O)c2c(c(O)c1CC(=C)Cl)C(=O)c1ccccc1C2=O
TGI [1]: > 100 µM | TGI [2]: > 100 µM | TGI [4]: > 100 µM | TGI [5]: > 100 µM | TGI [8]: > 100 µM | TGI [54]: > 100 µM | TGI [9]: > 100 µM | TGI [10]: > 100 µM | TGI [11]: > 100 µM | TGI [12]: > 100 µM | TGI [13]: > 100 µM | TGI [15]: > 100 µM | TGI [17]: > 100 µM | TGI [18]: > 100 µM | TGI [20]: > 100 µM | TGI [22]: > 100 µM | TGI [25]: > 100 µM | TGI [57]: > 100 µM | TGI [31]: > 100 µM | TGI [32]: > 100 µM | TGI [33]: > 100 µM | TGI [36]: > 100 µM | TGI [55]: > 100 µM | TGI [37]: > 100 µM | TGI [38]: > 100 µM | TGI [39]: > 100 µM | TGI [40]: > 100 µM | TGI [41]: > 100 µM | TGI [42]: > 100 µM | TGI [43]: > 100 µM | TGI [46]: > 100 µM | TGI [47]: > 100 µM | TGI [48]: > 100 µM | TGI [51]: > 100 µM | TGI [52]: > 100 µM | TGI [53]: > 100 µM
